Source: patent US10323022B2, “Pyrrolidinyl urea, pyrrolidinyl thiourea and pyrrolidinyl guanidine compounds as TrkA kinase inhibitors” (Array BioPharma Inc., priority 2011, dated 2019)
pIC50: −log10 of the molar value. Counter-ions that a name gives are not always drawn.

Biological target: TrkA (Homo sapiens (Human), UniProt P04629)
Assay: TrkA Omnia Assay
Format: biochemical
Conditions: averaged IC50; 20 nM enzyme, 500 μM ATP, 10 μM peptide substrate
In short: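 Continuous fluorescent kinase read-out (ex 360 nm, em 485 nm) over 70 min, with initial rates fitted to 4- or 5-parameter logistic curves for IC50. Final conditions: 500 μM ATP, 10 μM Omnia Tyr Peptide #4, 20 nM TrkA, MOPS pH 7.5 buffer with MgCl2 and Triton X-100; enzyme and compound preincubated 10 min at ambient temperature.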

Sequence of TrkA (P04629 33-796): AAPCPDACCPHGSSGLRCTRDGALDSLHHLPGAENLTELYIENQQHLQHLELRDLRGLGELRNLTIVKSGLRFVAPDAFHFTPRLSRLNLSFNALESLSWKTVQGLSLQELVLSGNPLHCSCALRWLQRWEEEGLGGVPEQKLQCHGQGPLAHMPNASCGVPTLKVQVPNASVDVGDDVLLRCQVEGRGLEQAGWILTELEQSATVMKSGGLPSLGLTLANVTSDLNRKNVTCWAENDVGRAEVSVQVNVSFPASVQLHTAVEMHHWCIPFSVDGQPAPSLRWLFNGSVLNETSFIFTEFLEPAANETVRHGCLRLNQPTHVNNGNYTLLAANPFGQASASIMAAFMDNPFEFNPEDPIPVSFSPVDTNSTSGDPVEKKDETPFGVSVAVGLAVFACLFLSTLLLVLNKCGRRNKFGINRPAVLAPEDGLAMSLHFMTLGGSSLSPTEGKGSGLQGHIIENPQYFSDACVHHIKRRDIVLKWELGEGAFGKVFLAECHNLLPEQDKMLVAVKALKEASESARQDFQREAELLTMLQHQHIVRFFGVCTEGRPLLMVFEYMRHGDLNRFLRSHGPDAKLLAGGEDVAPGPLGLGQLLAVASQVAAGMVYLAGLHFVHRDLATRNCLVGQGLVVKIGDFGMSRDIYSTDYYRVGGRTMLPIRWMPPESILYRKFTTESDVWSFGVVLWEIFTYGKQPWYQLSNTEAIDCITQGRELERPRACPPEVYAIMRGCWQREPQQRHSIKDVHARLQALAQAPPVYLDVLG

Structure (SMILES)	pIC50
COCCN1C[C@@H](NC(=O)Nc2c(F)c(-c3ccccc3)nn2-c2ccccc2)[C@H](c2ccc(F)c(F)c2)C1 [Example 169, 1-((3S,4R)-4-(3,4-difluorophenyl)-1-(2-methoxyethyl)pyrrolidin-3-yl)-3-(4-fluoro-1,3-diphenyl-1H-pyrazol-5-yl)urea]	> 7.00
COCCN1C[C@@H](NC(=O)Nc2c3c(nn2-c2ccccc2)CS(=O)(=O)C3)[C@H](c2cc(F)cc(F)c2)C1 [Example 173, 1-((3S,4R)-4-(3,5-difluorophenyl)-1-(2-methoxyethyl)pyrrolidin-3-yl)-3-(5,5-dioxido-2-phenyl-4,6-dihydro-2H-thieno[3,4-c]pyrazol-3-yl)urea]	> 7.00
COCCN1C[C@@H](NC(=O)Nc2c(C)c(OCCS(C)(=O)=O)nn2-c2ccccc2)[C@H](c2ccc(F)c(F)c2)C1 [Example 174, 1-((3S,4R)-4-(3,4-difluorophenyl)-1-(2-methoxyethyl)pyrrolidin-3-yl)-3-(4-methyl-3-(2-(methylsulfonyl)ethoxy)-1-phenyl-1H-pyrazol-5-yl)urea]	> 7.00
COCCN1C[C@@H](NC(=O)Nc2c(CO)cnn2-c2ccccc2)[C@H](c2ccc(F)c(F)c2)C1 [Example 175, 1-((3S,4R)-4-(3,4-difluorophenyl)-1-(2-methoxyethyl)pyrrolidin-3-yl)-3-(4-(hydroxymethyl)-1-phenyl-1H-pyrazol-5-yl)urea]	> 7.00
COCCN1C[C@@H](NC(=O)Nc2c(C)c(OC[C@@H](O)CO)nn2-c2ccccc2)[C@H](c2ccc(F)c(F)c2)C1 [Example 177, 1-((3S,4R)-4-(3,4-difluorophenyl)-1-(2-methoxyethyl)pyrrolidin-3-yl)-3-(3-((S)-2,3-dihydroxypropoxy)-4-methyl-1-phenyl-1H-pyrazol-5-yl)urea]	> 7.00

The remaining lines, values ahead:

pIC50	Structure (SMILES)
> 7.00	COCCOC(=O)c1ccc(-c2cc(NC(=O)N[C@@H]3CN(CCOC)C[C@H]3c3ccc(F)c(F)c3)n(C)n2)cc1 [Example 170, 2-methoxyethyl 4-(5-(3-((3S,4R)-4-(3,4-difluorophenyl)-1-(2-methoxyethyl)pyrrolidin-3-yl)ureido)-1-methyl-1H-pyrazol-3-yl)benzoate]
> 7.00	COCCN1C[C@@H](NC(=O)Nc2c3c(nn2-c2ccccc2)CS(=O)(=O)C3)[C@H](c2ccc(F)c(F)c2)C1 [Example 171, 1-((3S,4R)-4-(3,4-difluorophenyl)-1-(2-methoxyethyl)pyrrolidin-3-yl)-3-(5,5-dioxido-2-phenyl-4,6-dihydro-2H-thieno[3,4-c]pyrazol-3-yl)urea]
> 7.00	COCCN1C[C@@H](NC(=O)Nc2c3c(nn2-c2ccccc2)CS(=O)(=O)C3)[C@H](c2ccccc2)C1 [Example 172, 1-(5,5-dioxido-2-phenyl-4,6-dihydro-2H-thieno[3,4-c]pyrazol-3-yl)-3-((3S,4R)-1-(2-methoxyethyl)-4-phenylpyrrolidin-3-yl)urea]
> 7.00	COCCN1C[C@@H](NC(=O)Nc2c(C)c(OC[C@H](O)CO)nn2-c2ccccc2)[C@H](c2ccc(F)c(F)c2)C1 [Example 176, 1-((3S,4R)-4-(3,4-difluorophenyl)-1-(2-methoxyethyl)pyrrolidin-3-yl)-3-(3-((R)-2,3-dihydroxypropoxy)-4-methyl-1-phenyl-1H-pyrazol-5-yl)urea]
> 7.00	COCCN1C[C@@H](NC(=O)Nc2c(C)c(OCCO)nn2-c2ccccc2)[C@H](c2ccc(F)c(F)c2)C1 [Example 178, 1-((3S,4R)-4-(3,4-difluorophenyl)-1-(2-methoxyethyl)pyrrolidin-3-yl)-3-(3-(2-hydroxyethoxy)-4-methyl-1-phenyl-1H-pyrazol-5-yl)urea hydrochloride]
> 7.00	COCCN1C[C@@H](NC(=O)Nc2c(C)c(OC[C@H](C)O)nn2-c2ccccc2)[C@H](c2ccc(F)c(F)c2)C1 [Example 179, 1-((3S,4R)-4-(3,4-difluorophenyl)-1-(2-methoxyethyl)pyrrolidin-3-yl)-3-(3-((S)-2-hydroxypropoxy)-4-methyl-1-phenyl-1H-pyrazol-5-yl)urea hydrochloride]
